Results taken from PubChem BioAssay AID248 (DTP/NCI, 2004).
Values joined by “and” are separate entries in the source; they are usually repeats but may differ in a detail not shown here. Equal values may be shown once. Inconclusive results and toxic doses are left out. No stated cut-off is given here; in the data, active means T/C of 150% or more; inactive means T/C below 125%. Square brackets hold non-standard residues; d marks the D form. Peptide text beside a SMILES is read from it. * marks the point of attachment. ξ: configuration not given here. Cbz = O=C(OCc1ccccc1)*; ξT = CC(O)C(N)C(=O)O; OBn = c1ccc(CO*)cc1

Tested on: L1210 leukemia ip in BDF1 mice, survival T/C
Assay: NCI In Vivo Anticancer Drug Screen. Data for tumor model L1210 Leukemia (intraperitoneal) in B6D2F1 (BDF1) mice
Settings: endpoint: mean survival time, higher = longer survival
How it was run: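 Value reflects the ratio of survival in compound-treated mice to survival in vehicle-treated controls, with both groups carrying the same transplanted tumor.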

[1] = dose: 100.0 mg/kg/injection, schedule: Q04DX002 (ip), vehicle: Klucel (hydroxypropylcellulose) (HPC)
[2] = dose: 200.0 mg/kg/injection, schedule: Q04DX002 (ip), vehicle: Klucel (hydroxypropylcellulose) (HPC)
[3] = dose: 100.0 mg/kg/injection, schedule: Q04DX002 (ip), vehicle: saline with Tween-80
[4] = dose: 200.0 mg/kg/injection, schedule: Q04DX002 (ip), vehicle: saline with Tween-80
[5] = dose: 400.0 mg/kg/injection, schedule: Q04DX002 (ip), vehicle: saline with Tween-80
[6] = dose: 100.0 mg/kg/injection, schedule: Q01DX001 (ip), vehicle: saline
[7] = dose: 200.0 mg/kg/injection, schedule: Q01DX001 (ip), vehicle: saline
[8] = dose: 400.0 mg/kg/injection, schedule: Q01DX001 (ip), vehicle: saline
[9] = dose: 100.0 mg/kg/injection, schedule: Q04DX003 (ip), vehicle: Klucel (hydroxypropylcellulose) (HPC)
[10] = dose: 200.0 mg/kg/injection, schedule: Q04DX003 (ip), vehicle: Klucel (hydroxypropylcellulose) (HPC)
[11] = dose: 400.0 mg/kg/injection, schedule: Q04DX003 (ip), vehicle: Klucel (hydroxypropylcellulose) (HPC)
[12] = dose: 100.0 mg/kg/injection, schedule: Q01DX001 (ip), vehicle: Klucel (hydroxypropylcellulose) (HPC)
[13] = dose: 100.0 mg/kg/injection, schedule: Q01DX009 (ip), vehicle: Klucel (hydroxypropylcellulose) (HPC)
[14] = dose: 200.0 mg/kg/injection, schedule: Q01DX001 (ip), vehicle: Klucel (hydroxypropylcellulose) (HPC)
[15] = dose: 200.0 mg/kg/injection, schedule: Q01DX009 (ip), vehicle: Klucel (hydroxypropylcellulose) (HPC)
[16] = dose: 400.0 mg/kg/injection, schedule: Q01DX001 (ip), vehicle: Klucel (hydroxypropylcellulose) (HPC)
[17] = dose: 400.0 mg/kg/injection, schedule: Q01DX009 (ip), vehicle: Klucel (hydroxypropylcellulose) (HPC)
[18] = dose: 50.0 mg/kg/injection, schedule: Q01DX009 (ip), vehicle: Klucel (hydroxypropylcellulose) (HPC)
[19] = dose: 25.0 mg/kg/injection, schedule: Q01DX009 (ip), vehicle: Klucel (hydroxypropylcellulose) (HPC)
[20] = dose: 100.0 mg/kg/injection, schedule: Q04DX003 (ip), vehicle: saline
[21] = dose: 50.0 mg/kg/injection, schedule: Q01DX001 (ip), vehicle: saline

Measured: T/C

O=C1C(=O)c2ccccc2C(O)=C1C(C1=C(O)c2ccccc2C(=O)C1=O)c1ccc(Cl)cc1
inactive: dose: 75.0 mg/kg/injection, schedule: Q01DX001 (ip), vehicle: saline 86 % of control | dose: 150.0 mg/kg/injection, schedule: Q01DX001 (ip), vehicle: saline 86 % of control | dose: 300.0 mg/kg/injection, schedule: Q01DX001 (ip), vehicle: saline 86 % of control

O=C(O)c1ccccc1C(=O)c1ccc2ccccc2c1
inactive: dose: 12.5 mg/kg/injection, schedule: Q04DX002 (ip), vehicle: saline with Tween-80 94 % of control | dose: 25.0 mg/kg/injection, schedule: Q04DX002 (ip), vehicle: saline with Tween-80 88 % of control | dose: 50.0 mg/kg/injection, schedule: Q04DX002 (ip), vehicle: saline with Tween-80 91 % of control

O=C(O)C1CC(Br)C(Br)CC1C(=O)Nc1ccc(Cl)c(Cl)c1 (centres undefined)
inactive: [1] 115 % of control | [2] 121 % of control

c1cc[c]([Ge]([CH2][CH2][Sn]([c]2ccccc2)([c]2ccccc2)[c]2ccccc2)([c]2ccccc2)[c]2ccccc2)cc1
inactive: [3] 102 % of control | [4] 98 % of control | [5] 98 % of control

CCCC[S][Hg][I]
inactive: dose: 3.12 mg/kg/injection, schedule: Q01DX009 (ip), vehicle: Klucel (hydroxypropylcellulose) (HPC) 98 % of control | dose: 6.25 mg/kg/injection, schedule: Q01DX009 (ip), vehicle: Klucel (hydroxypropylcellulose) (HPC) 98 % of control | dose: 12.5 mg/kg/injection, schedule: Q01DX009 (ip), vehicle: Klucel (hydroxypropylcellulose) (HPC) 110 % of control

Cc1cc2ccccc2[n+](C)c1-c1ccccc1Cl
inactive: dose: 12.5 mg/kg/injection, schedule: Q04DX003 (ip), vehicle: saline 102 % of control

NC(=O)C1C(=O)OC2(CCCCC2)C1c1ccccc1 (centres undefined)
inactive: [6] 89 % of control | [7] 87 % of control | [8] 94 % of control

CCC(c1ccc2cc(OC)ccc2c1)C(CC(=O)O)C(=O)OC (centres undefined)
inactive: [9] 100 % of control | [10] 96 % of control | [11] 91 % of control

COc1ccc(C(=O)CCC(=O)O)c2ccccc12
inactive: [9] 92 % of control | [10] 93 % of control | [11] 88 % of control

O=C(Nc1ccccc1F)OCCOc1ccccc1
inactive: [12] 97 % of control | [13] 95 % of control and 97 % of control | [1] 98 % of control and 115 % of control | [14] 97 % of control | [15] 95 % of control and 102 % of control | [2] 106 % of control and 115 % of control | [16] 94 % of control | [17] 95 % of control and 103 % of control | dose: 400.0 mg/kg/injection, schedule: Q04DX002 (ip), vehicle: Klucel (hydroxypropylcellulose) (HPC) 100 % of control and 103 % of control

COc1ccc(Cl)cc1N1C(=O)C2C(C1=O)C1(Cl)C(Cl)=C(Cl)C2(Cl)C1(Cl)Cl (centres undefined)
inactive: [18] 91 % of control | [13] 101 % of control | [9] 98 % of control | [10] 98 % of control

Cc1cccc(C)c1NC(=O)c1cccc(C(=O)Nc2c(C)cccc2C)c1
inactive: [13] 98 % of control | [9] 96 % of control | [15] 111 % of control | [10] 87 % of control | [17] 105 % of control | [11] 86 % of control

CCCCCCCCS.[Ni]
inactive: dose: 6.0 mg/kg/injection, schedule: Q01DX009 (ip), vehicle: Klucel (hydroxypropylcellulose) (HPC) 100 % of control | dose: 12.0 mg/kg/injection, schedule: Q01DX009 (ip), vehicle: Klucel (hydroxypropylcellulose) (HPC) 92 % of control | [19] 92 % of control | [20] 102 % of control

CC(=O)Nc1c(NN=C(C)C)[nH]c(=O)[nH]c1=O
inactive: [21] 98 % of control | [6] 96 % of control | [7] 102 % of control | [8] 98 % of control

O=C(O)c1c(F)cccc1Cl
inactive: [3] 93 % of control | [4] 108 % of control | [5] 106 % of control

CC(C)C(=O)[O][Sn]([CH3])([CH3])[CH3]
inactive: dose: 0.19 mg/kg/injection, schedule: Q01DX009 (ip), vehicle: Klucel (hydroxypropylcellulose) (HPC) 90 % of control | dose: 0.39 mg/kg/injection, schedule: Q01DX009 (ip), vehicle: Klucel (hydroxypropylcellulose) (HPC) 95 % of control | dose: 0.78 mg/kg/injection, schedule: Q01DX009 (ip), vehicle: Klucel (hydroxypropylcellulose) (HPC) 93 % of control and 106 % of control | dose: 0.78 mg/kg/injection, schedule: Q04DX002 (ip), vehicle: Klucel (hydroxypropylcellulose) (HPC) 95 % of control | dose: 1.56 mg/kg/injection, schedule: Q04DX002 (ip), vehicle: Klucel (hydroxypropylcellulose) (HPC) 100 % of control | dose: 3.12 mg/kg/injection, schedule: Q04DX002 (ip), vehicle: Klucel (hydroxypropylcellulose) (HPC) 103 % of control

O=Cc1c(Cl)n(C(=O)c2ccccc2Cl)c2ccccc12
inactive: [1] 97 % of control | [2] 86 % of control

CCCCOc1c(Cl)c(Cl)c(O)c(Cl)c1Cl
inactive: dose: 50.0 mg/kg/injection, schedule: Q01DX009 (ip), vehicle: acetone 101 % of control | dose: 50.0 mg/kg/injection, schedule: Q04DX003 (ip), vehicle: saline 97 % of control | [6] 93 % of control | dose: 100.0 mg/kg/injection, schedule: Q01DX009 (ip), vehicle: acetone 93 % of control | [20] 94 % of control | [7] 88 % of control | dose: 200.0 mg/kg/injection, schedule: Q04DX003 (ip), vehicle: saline 87 % of control

CC(O)C(NC(=O)CNC(=O)OCc1ccccc1)C(=O)OCc1ccccc1 (stereo not drawn) (Cbz-Gly-[ξT]-OBn)
inactive: dose: 100.0 mg/kg/injection, schedule: Q04DX003 (ip), vehicle: saline with Tween-80 97 % of control | dose: 200.0 mg/kg/injection, schedule: Q04DX003 (ip), vehicle: saline with Tween-80 105 % of control | dose: 400.0 mg/kg/injection, schedule: Q04DX003 (ip), vehicle: saline with Tween-80 97 % of control

CCCCC(=O)N/N=C/c1ccccc1C(=O)O
inactive: [6] 96 % of control | [7] 107 % of control | [8] 91 % of control

Nc1ccc2cc3ccc(N)cc3nc2c1
inactive: [21] 120 % of control

OCP(CO)CO.[Cl][Hg][Cl]
inactive: dose: 30.0 mg/kg/injection, schedule: Q01DX001 (ip), vehicle: saline 119 % of control

Nc1nc2ncc(CNc3ccc(C(=O)NC(CCC(=O)O)C(=O)O)cc3)nc2c(=O)n1N (centres undefined)
inactive: [12] 98 % of control | [14] 101 % of control | [16] 98 % of control

CN(C(=S)SSC(=S)N(C)c1ccccc1)c1ccccc1
inactive: [19] 96 % of control | [18] 101 % of control | [13] 101 % of control | [9] 105 % of control | [10] 89 % of control | [11] 93 % of control

CCCCCCC#CC(=O)OCCCCCC
inactive: dose: 100.0 mg/kg/injection, schedule: Q04DX002 (ip), vehicle: saline 108 % of control | dose: 200.0 mg/kg/injection, schedule: Q04DX002 (ip), vehicle: saline 94 % of control | dose: 400.0 mg/kg/injection, schedule: Q04DX002 (ip), vehicle: saline 97 % of control
